Measured values reported in BindingDB's records for doi:10.1016/j.bmcl.2004.05.049 (Procyon Biopharma, 2004).

Molecular target: T1, Dimer of Gag-Pol polyprotein [501-599] (Human immunodeficiency virus 1, UniProt P03367)
T1 construct: 501-599
Assay: Protease Inhibition Assay
Settings: pH 4.7; 30 °C
Description: HIV-1 protease activity was measured by a continuous fluorometric assay using the internally quenched fluorogenic substrate DABCYL-Ser-Gln-Asn-Tyr-Pro-Ile-Val-Gln-EDANS. The proteolytic activity can be monitored by the increase in fluorescence intensity, and the protease products were analyzed by HPLC.

Structure (SMILES) | Ki
Cc1ccc(S(=O)(=O)N(CC(C)C)[C@@H](CCCCNC(=O)N(CCc2ccccc2)Cc2ccccc2)C(=O)O)cc1 [(2S)-6-{[benzyl(2-phenylethyl)carbamoyl]amino}-2-[(4-methylbenzene)(2-methylpropyl)sulfonamido]hexanoic acid] | > 300 nM
Cc1ccc(S(=O)(=O)N(CC(C)C)[C@@H](CCCCNC(=O)NCc2ccccn2)C(=O)O)cc1 [(2S)-2-[(4-methylbenzene)(2-methylpropyl)sulfonamido]-6-{[(pyridin-2-ylmethyl)carbamoyl]amino}hexanoic acid] | > 300 nM
